In patent US8546428B2 (priority 2006, dated 2013):

Assays:
[1] = hygroscopicity of the salt; format: physicochemical
[2] = in vivo, po

## COc1nc2ccc(Br)cc2cc1[C@@H](c1ccccc1)[C@@](O)(CCN(C)C)c1cccc2ccccc12.O=C(O)/C=C/C(=O)O [Present fumarate salt, (alpha S, beta R)-6-bromo-alpha-[2-(dimethylamino)ethyl]-2-methoxy-alpha-1-naphthalenyl-beta-phenyl-3-quinolineethanol (2E)-2-butenedioate (1:1)]
[1]
  hygroscopicity: non-hygroscopic
[2]
  bioavailability, fed subjects compared to fasted subjects: higher bioavailability
